Assay results as given in patent US12435308B2, “Immunomodulation by amniotic fluid mesenchymal stem cells” (Amniotics AB, priority 2020, dated 2025).

What was measured:
[1] = tested on: human PBMCs activated with anti-CD3/anti-CD28; experiment: PBMC:MSC co-culture ex vivo assay, FACS analysis (CFSE proliferation)
Description: (§1) For ex vivo analysis, freshly isolated human PBMCs, pooled from three donors, were activated with anti-CD3/anti-CD28 at 10 μg/ml and 5 μg/ml respectively in presence of MSCs ex vivo for 24-72 hours. Following activation, cells were analyzed for effects on cellular composition and cell proliferation using CFSE. In addition, supernatants were analyzed for cytokine levels using Luminex.
(§2) In this example, Peripheral Blood Mononuclear Cells (PBMCs) were isolated from leucocyte concentrate from three different donors (acquired from Blodcentralen, Lunds Universitetssjukhus, Lund, Sweden) through gradient centrifugation using Ficoll. Red blood cells (RBCs) were lysed using lysis buffer (3 min, RT), cells were washed and the isolated PBMCs were pooled. Cell concentration was determined using a Scepter cell counter (Millipore Merck, MA, USA). Cells were diluted to 1×10^7 cells/ml in PBS. Pooled PBMCs were split into 2 different tubes. Pool one was stained with CFSE at 5 μM for 5 minutes (dark, RT). CFSE stained cells were washed with an equal volume of FBS to stop the reaction and washed again with PBS. Pool 2 was left in PBS.
(§3) All cells (PBMCs and MSCs) were diluted in two different cell culture media (M3 and M4) at 2*10^6 cells/ml. Media was supplemented with anti-CD28 at 5 μg/ml. Cells were added to anti-CD3 (10 μg/ml) coated U bottom cell culture plates according to layout below, 200 μl/well in different PBMC:MSC ratios (1:10, 1:5, 1:2.5, 1:0 and 0:1).
(§4) Included were also controls (stimulated and unstimulated PBMCs) and two reference drugs, e.g., cyclosporine (CsA) and Prednisolone. When plating controls, cells were spun down and diluted in media 3 or 4 at 4*10^6 cells/ml. 100 μl PBMCs were added per well. CsA was added at a final concentration of 10 μg/ml and Prednisolone was added at a final concentration of 125 nM. Medium was added to unstimulated control wells. Control cells (AD-MSC) were also analyzed. Cells were incubated for 24-72 hours at 37° C., 5% CO2.
To continue with this example, after 72 hours of incubation, CFSE stained cells were stained with CD4, CD8, CD80, CD206 and CD163. Briefly, cells were transferred to V bottom plates, centrifuged at 360×g for 2 min. Cells were washed in PBS, centrifuged at 360×g for 2 min at 4° C. Supernatant was flicked off and surface markers were added. Cells were incubated at +4° C. for 20 minutes. After incubation, cells were washed 1× in PBS, centrifuged at 360×g for 2 min at 4° C. Cells were resuspended in PBS and analyzed using flow cytometry. Compensation was performed using beads—AbC Total Compensation capture beads and negative beads. Since compensation was done using beads, FSC and SSC were changed before analyzing samples and adjusted to suit cells.
The inhibitory effect was calculated according to the two formulas below: […]

[2] = tested on: human PBMCs activated with anti-CD3/anti-CD28; experiment: PBMC:MSC co-culture ex vivo assay, FACS analysis (cell composition)
Description: as §1, §2, §3, §4
Following 24 hours of incubation, cells in FACS/Luminex plates were stained with CD73, CD4, CD8, CD80, CD206, CD163 and PD-1. Briefly, cells were transferred to V bottom plates and centrifuged at 360×g for 2 min. Supernatant was transferred to a storage plate and put in −20° C. until analysis using Luminex. Cells were washed in PBS, centrifuged at 360×g for 2 min at 4° C. Supernatant was flicked off and surface markers were added. Cells were incubated at +4° C. for 20 minutes (dark). After incubation, cells were washed 1× in PBS, centrifuged at 360×g for 2 min at 4° C. Cells were resuspended in PBS and analyzed using the Attune Nxt flow cytometer. Compensation was performed using beads—AbC Total Compensation capture beads and negative beads. Since compensation was done using beads, FSC and SSC were changed before analyzing samples and adjusted to suit cells.

[3] = CFSE plates, 72 hours of incubation

With `C[C@]12C=CC(=O)C=C1CC[C@@H]1[C@@H]2[C@@H](O)C[C@@]2(C)[C@H]1CC[C@]2(O)C(=O)CO` [Prednisolone] the “effect on cytotoxic T cells” value [1] was “no effect”, the “effect on M1 expression level” value [1, 3] was “no effect” and the “effect on M2 expression level” value [1, 3] was “no effect”. For the same compound, the “effect on T helper cells” value [1, 3] was “no effect”, the “% cytotoxic T cells (CD8+ lymphocytes)” value [2] was “lower levels” and the “expression level of CD73+M1” value ([2]; 24 hours of incubation) was “lower expression level”. The “expression level of CD73+M2” value ([2]; 24 hours of incubation) was “lower expression level”, the “% T helper cells (CD4+ lymphocytes)” value ([2]; 24 hours of incubation, versus control) was “higher levels” and the “macrophage polarization (shift towards M2)” value ([2]; assay controls, cell composition) was “shift towards M2”.
